From ChEMBL document CHEMBL1131016, “Carbocyclic analogues of the potent cytidine deaminase inhibitor 1-(beta-D-ribofuranosyl)-1,2-dihydropyrimidin-2-one (zebularine)” (J Med Chem, 1998)
Calls of active or inactive are those of the source. No cut-off for these calls is given here.

Legend:
Cytidine deaminase [1] = target: T1, Cytidine deaminase (Homo sapiens, UniProt P32320); assay: Compound was tested for its binding affinity against human cytidine deaminase;16-fold less potent than that of zebularine (16.5 uM)
T1 sequence (P32320 whole entry): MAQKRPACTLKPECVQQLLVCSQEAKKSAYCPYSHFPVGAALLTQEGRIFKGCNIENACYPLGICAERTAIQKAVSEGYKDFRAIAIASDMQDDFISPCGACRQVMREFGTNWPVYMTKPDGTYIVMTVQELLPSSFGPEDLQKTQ

Cytidine deaminase [2] = target: T1, Cytidine deaminase; assay: Inhibitory concentration of mouse or human Cytidine deaminase; No inhibition

Row | fold less potent than zebularine (Cytidine deaminase [1]) | inhibition (Cytidine deaminase [2]) | Compound
1 | 16 | – | O=c1ncccn1C1CC(CO)[C@@H](O)[C@H]1O (some centres not stated)
2 | – | inactive | O=c1ncccn1[C@H]1[C@H](O)[C@H](O)C2(CO)C[C@H]12 (single isomer, unassigned)
